The source of these data is patent US8563543B2, “Iminothiadiazine dioxide compounds as bace inhibitors, compositions, and their use” (Merck Sharp & Dohme Corp., priority 2009, dated 2013).

The nature of series [1]: Solution stability (hydrolysis) by LC/MS in pH 7.4 phosphate buffer. The format is physicochemical. The note with it: for hydrolysis: 25° C. over 6 days; for hydrolysis / hydrolysis product share of the sample: pH 7.4. As to the method: The following procedures were used to measure solution stability, and to compare the solution stability of the compounds of the invention to that of otherwise structurally identical iminopyrimidinones.
Stock solutions of the tested compounds were prepared by dissolving about 3 mg of each compound in 3 mL of acetonitrile. Standards for test compounds were prepared by diluting 1 mL of the stock solution with an additional 4 mL of acetonitrile. These standards were stored at 4° C. Samples were prepared by diluting 1 mL of the stock solution with 4 mL of 50 mM pH 7.4 phosphate buffer. These samples were stored at the appropriate temperature in the absence of light. Standards and samples were analyzed by LC/MS initially and at day 1, day 4, and day 6. • HPLC Conditions: • Mobile phase A: 10 mM pH 5 ammonium acetate buffer:methanol (90:10) • Mobile phase B: 10 mM pH 5 ammonium acetate buffer:methanol (10:90) • Column: Zorbax SB-Phenyl 4.6×50 mm, 1.8 μm • Column temperature: 40° C. • Flow: 0.8 mL/min. • Gradient:
• Detectors: UV at 220 nm and 236 nm • MS, ES ionization, positive mode, for identification only at final time point. • The terms reported in the tables below have the following meanings: • Area % is the integration of peak from HPLC as reported by Waters Empower II software. • RRT is the relative retention time of new product compared to the standard of the test compound. • Formula for RRT is:
[formula] • M+1 is the mass observed including protonation (+1 mass unit). • ND stands for no peak detected by the UV detector. • * stands for no ion detected by the mass spectrometer.

Series [2] has as its target T1, purified human autoBACE-2 (Homo sapiens, UniProt Q9Y5Z0).
T1 sequence (Q9Y5Z0 63-473 limits assumed): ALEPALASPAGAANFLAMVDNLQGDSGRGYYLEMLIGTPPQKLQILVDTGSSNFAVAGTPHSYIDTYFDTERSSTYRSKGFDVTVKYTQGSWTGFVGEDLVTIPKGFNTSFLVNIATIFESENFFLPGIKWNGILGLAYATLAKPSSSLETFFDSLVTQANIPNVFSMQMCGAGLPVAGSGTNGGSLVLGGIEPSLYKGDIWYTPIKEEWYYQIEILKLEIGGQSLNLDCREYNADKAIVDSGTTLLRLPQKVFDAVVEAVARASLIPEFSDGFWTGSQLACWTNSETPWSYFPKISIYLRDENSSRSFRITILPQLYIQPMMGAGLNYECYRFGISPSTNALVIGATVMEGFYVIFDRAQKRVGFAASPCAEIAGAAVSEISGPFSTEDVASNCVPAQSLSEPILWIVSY
Briefly: BACE-2 time-resolved endpoint proteolysis assay (BACE-HTRF assay). The format is biochemical. The note with it: calculated from IC50 using the Cheng-Prusoff equation. As to the method:
Inhibitor IC50 values at purified human autoBACE-2 were determined in a time-resolved endpoint proteolysis assay that measures hydrolysis of the QSY7-[…]-Eu-amide FRET peptide substrate (BACE-HTRF assay). RACE-mediated hydrolysis of this peptide results in an increase in relative fluorescence (RFU) at 620 nm after excitation with 320 nm light. Inhibitor compounds, prepared at 3× the desired final concentration in 1×BACE assay buffer (20 mM sodium acetate pH 5.0, 10% glycerol, 0.1% Brij-35) supplemented with 7.5% DMSO were pre-incubated with an equal volume of autoBACE-2 enzyme diluted in 1×RACE assay buffer (final enzyme concentration 1 nM) in black 384-well NUNC plates for 30 minutes at 30° C. […] DMSO was present at 5% final concentration in the assay. Following laser excitation of sample wells at 320 nm, the fluorescence signal at 620 nm was collected for 400 ms following a 50 μs delay on a RUBYstar HTRF plate reader (BMG Labtechnologies). Raw RFU data was normalized to maximum (1.0 nM RACE/DMSO) and minimum (no enzyme/DMSO)RFU values. IC50 values were determined by nonlinear regression analysis (sigmoidal dose response, variable slope) of percent inhibition data with minimum and maximum values set to 0 and 100 percent respectively. Similar IC50 values were obtained when using raw RFU data. The Ki values were calculated from the IC50 using the Cheng-Prusoff equation.

The target of series [3] is soluble human BACE1 catalytic domain (Homo sapiens, UniProt P56817). The experiment in a line: BACE1 HTRF FRET assay. The format is biochemical. As to conditions: calculated from IC50 using the Cheng-Prusoff equation. From the text:
Dimethyl Sulfoxide (DMSO)
Recombinant human soluble BACE1 catalytic domain (>95% pure)
APP Swedish mutant peptide substrate (QSY7-APP^swe-Eu): QSY7-[…]-Europium-amide
A homogeneous time-resolved FRET assay was used to determine IC50 values for inhibitors of the soluble human BACE1 catalytic domain. This assay monitored the increase of 620 nm fluorescence that resulted from BACE1 cleavage of an APPswedish APP^swe mutant peptide FRET substrate (QSY7-[…]-Europium-amide). This substrate contained an N-terminal QSY7 moiety that served as a quencher of the C-terminal Europium fluorophore (620 nm Em). In the absence of enzyme activity, 620 nm fluorescence was low in the assay and increased linearly over 3 hours in the presence of uninhibited BACE1 enzyme. Inhibition of BACE1 cleavage of the QSY7-APP^swe-Eu substrate by inhibitors was manifested as a suppression of 620 nm fluorescence.
Varying concentrations of inhibitors at 3× the final desired concentration in a volume of 10 ul were preincubated with purified human BACE1 catalytic domain (3 nM in 10 μl) for 30 minutes at 30° C. in reaction buffer containing 20 mM Na-Acetate pH 5.0, 10% glycerol, 0.1% Brij-35 and 7.5% DSMO. […] The 620 nm fluorescence was then read on a Rubystar HTRF plate reader (BMG Labtechnologies) using a 50 μs delay followed by a 400 millisecond acquisition time window. […]

Where [4] appears, read: Sample at pH 7.4, 25° C., Day 1.
Where [5] appears, read: Sample at pH 7.4, 25° C., Day 4.
Where [6] appears, read: Sample at pH 7.4, 25° C., Day 6.
[7] abbreviates: Sample at pH 7.4, 25° C., Initial.
Setting [8] is: Sample initial, 40° C. and 60° C. studies.
[9] abbreviates: Standard in acetonitrile, stored at 4° C., Day 1.
Where [10] appears, read: Standard in acetonitrile, stored at 4° C., Day 4.
Where [11] appears, read: Standard in acetonitrile, stored at 4° C., Day 6.
The mark [12] stands for this setting: Standard in acetonitrile, stored at 4° C., Initial.

By Ki is commonly meant a dissociation constant, usually derived from enzyme kinetics or from competition with a known ligand.

Structures are written as SMILES. Where “and” joins values, the source holds several entries; their conditions need not be identical. Identical values can stand only once.

soluble human BACE1 catalytic domain, sequence (P56817 75-416 limits assumed): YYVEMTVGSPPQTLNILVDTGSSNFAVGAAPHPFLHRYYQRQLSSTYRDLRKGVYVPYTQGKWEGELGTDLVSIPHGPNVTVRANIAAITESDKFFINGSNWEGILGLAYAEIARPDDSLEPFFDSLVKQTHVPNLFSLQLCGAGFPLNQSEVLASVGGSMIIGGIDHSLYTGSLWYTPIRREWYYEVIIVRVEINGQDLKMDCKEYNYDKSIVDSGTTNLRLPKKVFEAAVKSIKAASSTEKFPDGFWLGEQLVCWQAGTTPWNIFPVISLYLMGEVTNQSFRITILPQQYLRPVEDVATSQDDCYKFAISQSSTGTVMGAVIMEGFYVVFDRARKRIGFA

For `CN1C(=N)N[C@](C)(c2ccc(F)cc2F)[C@@H](c2ccc(C(F)(F)F)cc2)C1=O` [Compound Y], the hydrolysis in series [1] turned out to be 3.36%. For the same compound, the “hydrolysis product share of the sample” value was found to be 31.4% in series [1] (40° C. over 4 days) and 28.5% in series [1] (60° C.). Also, the “Area %, Day 1 (parent peak)” value in series [1] (setting [4]) was 100.0%; in series [1] (setting [9]), 100.0% and 99.4%; in series [1] (pH 7.4 at 40° C., Day 1), 86.3%; in series [1] (pH 7.4 at 60° C., Day 1) it was 56.7%. Further, the “Area %, Day 4 (parent peak)” value in series [1] (setting [5]) came out at 100.0%; in series [1] (setting [10]), 100.0%; in series [1] (pH 7.4 at 40° C., Day 4) it was 55.8%. The “Area %, Day 6 (hydrolysis product peak)” value in series [1] (setting [6]) is on record as 3.36%. The “Area %, Day 6 (parent peak)” value in series [1] (setting [6]) is recorded as 89.79%; in series [1] (setting [11]) it was 100.0%. The “Area %, Initial (parent peak)” value was 100.0% in series [1] (setting [7]); 98.2% in series [1] (setting [8]); 100.0% and 98.8% in series [1] (setting [12]). For the same compound, the “Area %, Initial (hydrolysis product peak)” value in series [1] (setting [8]) was found to be 0.7%. The “Area %, Day 1 (hydrolysis product peak)” value was 10.5% in series [1] (pH 7.4 at 40° C., Day 1) and 28.5% in series [1] (pH 7.4 at 60° C., Day 1). Further, the “Area %, Day 4 (hydrolysis product peak)” value in series [1] (pH 7.4 at 40° C., Day 4) is given as 31.4%. Also, the “Area %, Day 4 (unidentified peak, RRT 0.87)” value in series [1] (pH 7.4 at 40° C., Day 4, no ion detected by the mass spectrometer) amounted to 5.8%. In addition, the “Area %, Day 1 (unidentified peak, RRT 0.87)” value in series [1] (pH 7.4 at 60° C., Day 1, no ion detected by the mass spectrometer) is listed as 6.6%.

Regarding `CN1C(=N)N[C@](C)(c2ccc(F)cc2F)[C@@H](c2ccc(C(F)(F)F)cc2)S1(=O)=O` [Example 3], the Ki in series [2] is about 11 nM; in series [3], about 9 nM. In addition, in series [1], the hydrolysis result is on record as “no hydrolysis”. The “hydrolysis product share of the sample” value in series [1] (40° C. over 4 days) and in series [1] (60° C.) was “no hydrolysis” each time. Further, the “Area %, Day 1 (parent peak)” value is reported as 100.0% in series [1] (setting [4]); 100.0% in series [1] (setting [9]); 100.0% in series [1] (pH 7.4 at 40° C., Day 1). The “Area %, Day 4 (parent peak)” value is 100.0% in series [1] (setting [5]); 100.0% in series [1] (setting [10]); 100.0% in series [1] (pH 7.4 at 40° C., Day 4); 87.3% in series [1] (pH 7.4 at 60° C., Day 4). Moreover, the “Area %, Day 6 (parent peak)” value in series [1] (setting [6]) and in series [1] (setting [11]) was 100.0% in each case. Moreover, the “Area %, Initial (parent peak)” value in series [1] (setting [7]), in series [1] (setting [8]) and in series [1] (setting [12]) was 100.0% each time. Moreover, the “Area %, Day 4 (unidentified peak, RRT 0.52)” value in series [1] (pH 7.4 at 60° C., Day 4, no ion detected by the mass spectrometer) is reported as 12.7%.
